Columns and labels:
human NPP3 = target: T1, human NPP3 (Homo sapiens, UniProt O14638); assay: Inhibition of NPP3 activity; format: biochemical; conditions: for inhibition at 100 µM: read-out: inhibition of NPP3 activity; for inhibition of pnp-TMP hydrolysis by NPP3: analogue and pnp-TMP 100 μM
T1 construct: made in house; host or cells: COS-7 cells (transfected; protein extract / cell lysate)
T1 sequence (O14638 1-875): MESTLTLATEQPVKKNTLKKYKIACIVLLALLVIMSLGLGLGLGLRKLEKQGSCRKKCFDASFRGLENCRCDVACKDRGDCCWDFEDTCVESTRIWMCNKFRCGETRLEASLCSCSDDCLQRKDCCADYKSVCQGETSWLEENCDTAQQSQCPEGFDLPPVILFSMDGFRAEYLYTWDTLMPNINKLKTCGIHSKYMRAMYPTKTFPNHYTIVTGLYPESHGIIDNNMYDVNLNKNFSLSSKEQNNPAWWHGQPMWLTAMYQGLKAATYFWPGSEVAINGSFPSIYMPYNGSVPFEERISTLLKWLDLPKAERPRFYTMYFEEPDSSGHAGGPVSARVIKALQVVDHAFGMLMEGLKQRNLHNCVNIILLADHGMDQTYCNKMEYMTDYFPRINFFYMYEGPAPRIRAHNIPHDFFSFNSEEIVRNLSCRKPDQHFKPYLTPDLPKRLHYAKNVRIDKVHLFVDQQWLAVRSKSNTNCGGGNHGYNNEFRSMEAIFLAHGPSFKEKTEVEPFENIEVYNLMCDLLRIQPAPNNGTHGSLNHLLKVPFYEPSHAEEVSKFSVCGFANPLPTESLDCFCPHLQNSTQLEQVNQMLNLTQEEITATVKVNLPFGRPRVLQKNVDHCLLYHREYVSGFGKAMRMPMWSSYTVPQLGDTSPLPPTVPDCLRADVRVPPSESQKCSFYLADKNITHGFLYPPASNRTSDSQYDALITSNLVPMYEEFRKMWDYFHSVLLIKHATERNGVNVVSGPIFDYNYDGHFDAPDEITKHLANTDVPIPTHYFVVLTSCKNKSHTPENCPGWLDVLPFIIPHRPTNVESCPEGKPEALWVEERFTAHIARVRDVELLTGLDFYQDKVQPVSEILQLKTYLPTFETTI
Description: Pnp-TMP hydrolyses were carried out at 37° C. in 0.2 ml of the following incubation mixture: in mM, 1 CaCl2, 130 NaCl, 5 KCl and 50 Tris, pH 8.5, with or without the analogue tested and/or substrates. Substrates and analogues were all used at the final concentration of 100 μM. […] For pnp-TMP hydrolysis, the production of para-nitro-phenol was measured at […], 15 min after the initiation of the reaction.
The samples were centrifuged for 5 min at 13,000×g. Supernatants were neutralized with 1 M KOH (Fisher Scientific, Ottawa, ON, Canada) at 4° C. and centrifuged for 5 min at 13,000×g.

human NPP1 = target: T2, human NPP1 (Homo sapiens, UniProt P22413); assay: Hydrolysis by human NPP1; format: in vitro ADME; conditions: for Hydrolysis by NPP1: 100 μM, 1 h, compared to ATP; for Relative hydrolysis by NPP1: over 2 h
T2 construct: made in house; host or cells: COS-7 cells (transfected; protein extract / cell lysate)
T2 sequence (P22413 1-925): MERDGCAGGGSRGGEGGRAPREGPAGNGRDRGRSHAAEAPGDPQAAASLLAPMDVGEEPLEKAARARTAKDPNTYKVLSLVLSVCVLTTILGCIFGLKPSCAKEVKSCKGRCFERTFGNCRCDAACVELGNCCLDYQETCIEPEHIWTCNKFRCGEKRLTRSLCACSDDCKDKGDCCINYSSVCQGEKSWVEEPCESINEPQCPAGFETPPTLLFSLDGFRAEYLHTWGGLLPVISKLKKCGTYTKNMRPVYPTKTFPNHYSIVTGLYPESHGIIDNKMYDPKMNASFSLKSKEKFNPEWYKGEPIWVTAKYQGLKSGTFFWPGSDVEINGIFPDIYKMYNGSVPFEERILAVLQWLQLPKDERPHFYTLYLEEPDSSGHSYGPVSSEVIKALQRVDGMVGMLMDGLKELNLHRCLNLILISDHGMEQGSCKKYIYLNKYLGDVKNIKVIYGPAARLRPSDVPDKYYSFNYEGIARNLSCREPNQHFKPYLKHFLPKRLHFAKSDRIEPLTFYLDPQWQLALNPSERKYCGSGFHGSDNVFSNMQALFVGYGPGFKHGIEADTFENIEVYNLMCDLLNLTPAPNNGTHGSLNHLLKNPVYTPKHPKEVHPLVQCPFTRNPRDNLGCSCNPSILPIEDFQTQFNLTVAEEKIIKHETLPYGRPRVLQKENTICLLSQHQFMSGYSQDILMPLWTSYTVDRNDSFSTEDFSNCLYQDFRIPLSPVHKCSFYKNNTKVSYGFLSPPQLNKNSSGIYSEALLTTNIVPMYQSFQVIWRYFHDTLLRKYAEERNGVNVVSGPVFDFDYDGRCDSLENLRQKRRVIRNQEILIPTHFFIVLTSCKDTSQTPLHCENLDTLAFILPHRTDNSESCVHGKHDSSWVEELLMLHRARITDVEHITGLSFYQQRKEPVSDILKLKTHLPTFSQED

Nc1ncnc2c1ncn2[C@@H]1O[C@H](COP(O)(=S)OP(=O)(O)C(Cl)(Cl)P(=O)(O)O)[C@@H](O)[C@H]1O (single isomer, unassigned) [APPCCl2P-α-S, adenosine 5′-[Pα-thio]-β,γ-(dichloromethylene)triphosphate]
inhibition of the hydrolysis of ATP by NPP3 (human NPP3): 33% | inhibition at 100 µM (human NPP3): 23 to 43%

Nc1ncnc2c1ncn2[C@@H]1O[C@H](COP(O)(=S)OP(=O)(O)CP(=O)(O)O)[C@@H](O)[C@H]1O (single isomer, unassigned; isomer a) [APPCP-α-S (isomer A), adenosine 5′-[Pα-thio]-β,γ-methylenetriphosphate]
Hydrolysis by NPP1 (human NPP1): fully stable

Nc1ncnc2c1ncn2[C@@H]1O[C@H](COP(O)(=S)OP(=O)(O)CP(=O)(O)O)[C@@H](O)[C@H]1O (single isomer, unassigned; isomer b) [APPCP-α-S (isomer B), adenosine 5′-[Pα-thio]-β,γ-methylenetriphosphate]
Hydrolysis by NPP1 (human NPP1): ~4%

Nc1ncnc2c1ncn2[C@@H]1O[C@H](COP(=O)(O)OP(O)(O)=S)[C@@H](O)[C@H]1O [ADP-β-S, adenosine 5′-[β-thio]diphosphate, reference compound]
Relative hydrolysis by NPP1 (human NPP1): not metabolized at all | inhibition of pnp-TMP hydrolysis by NPP3 (human NPP3): less than 50%

Nc1ncnc2c1ncn2[C@@H]1O[C@H](COP(=O)(O)CP(=O)(O)OP(O)(O)=S)[C@@H](O)[C@H]1O [APCPP-γ-S, adenosine 5′-[Pγ-thio]-α,β-methylenetriphosphate]
inhibition at 100 µM (human NPP3): 23 to 43%

adenosine-5′-tetrathiobisphosphonate
Relative hydrolysis by NPP1 (human NPP1): not metabolized at all | inhibition of pnp-TMP hydrolysis by NPP3 (human NPP3): 7%

di-adenosine-5′,5″-tetrathiobisphosphonate
Relative hydrolysis by NPP1 (human NPP1): not metabolized at all | inhibition of pnp-TMP hydrolysis by NPP3 (human NPP3): 20%
